Reference: patent US4307100A (priority 1978, dated 1981)

Tests used:
tubulin [1] = assay: Inhibition of the polymerisation of tubulin (UV, 350 nm); format: biochemical, pigs; settings: for I50/I50 vinblastine: tartrates, tubulin concentration ~ 2 mg/ml, ratio to vinblastine
Text: (§1) The receiver of anti-tumoral indolic alkaloids of the vinblastine type is tubulin.
(§2) It is readily extracted from pigs' brains where it preresents 10% of the soluble proteins.
(§3) The polymerisation of tubulin into microtubules may readily be followed by means of a UV spectrophotometer observing at 350 nm. The maximum polymerisation velocity is thus determined; it is reduced by the addition of inhibitors of the vinblastine type and a concentration, I50, reducing the polymerisation velocity by half is obtained for each substance tested. A second effect of these products is taken into consideration: with higher doses, after complete inhibition of polymerisation, spiralisation of the tubulin is observed (verified by electron microscopy) and a new concentration, S50, corresponding to the appearance of 50% of the phenomenon is determined.
(§4) The results of each product are always compared with those of the vinblastine used as reference.
(§5) The results of the interaction tests with
(§6) tubulin carried out on the tartrates are summarised
(§7) in the following Table (tubulin concentration
(a) I50 : concentration of the product inhibiting 50% of the velocit
of polymerisation of the tubulin. I50 vinblastine = 2,10^-6.

tubulin [2] = assay: Spiralisation of tubulin (S50); format: biochemical, pigs; settings: for S50/S50 vinblastine: tartrates, tubulin concentration ~ 2 mg/ml, ratio to vinblastine
Text: as §1, §2, §3, §4, §5, §6, §7
(b) S50 : concentration of the product required for inducing 50% of
the maximum spiralisation of the tubulin.

P388 leukaemia = assay: Activity in the P388 leukaemia test on mice; format: in vivo, mice (DBA/2 female); settings: tartrate; for ratio of T and C (formula drawing 15): C = average life of treated, control group; for Mean survival period: control 10.5 ± 0.8
Protocol: Table II below exemplifies the results obtained with the compound of Example 1 in the form of its tartrate in the treatment of P388 leukaemia.
T=average life (in days) of the mice of the treated group
C=average life (in days) of the mice of the control group
Graft: P 388 (10^6 cell./mice ip)
(§8) Graft→treatment interval: 24 h.

L1210 leukaemia = assay: Activity in the L1210 leukaemia test on mice; format: in vivo, mice (DBA/2 female); settings: tartrate
Protocol: Table III below summarises the results obtained with the compound of Example 1 in the form of its tartrate in the treatment of L1210 leukaemia:
as §8
Conc. 0.5 and 1 mg/ml in physiological serum.

[3] = Toxicity of the product of Example 1 in tartrate form, single dose, mortality over 35 days; format: in vivo, DBA/2 female mice; settings: for Distribution of mortality, 1: column 1 (day); for Distribution of mortality, 6: column 6 (day); for Distribution of mortality, 3: column 3 (day)
Text: A single dose of the test product is intraperitoneally administered to DBA/2 .female. mice and the mortality rate studied over a period of 35 days.

leukaemia studied = assay: Leukaemia tests on mice, overall conclusion; format: in vivo; settings: in words, compared with vincristine and vinblastine
Text: (2) Activity in the P388 leukaemia test on mice
(3) Activity in the L1210 leukaemia test on mice

[4] = comparison value, cited from earlier work; for DL50: i.v.

CCC12CN3Cc4c([nH]c5ccccc45)[C@@](C(=O)OC)(c4cc5c(cc4OC)N(C=O)[C@H]4[C@@](O)(C(=O)OC)[C@H](OC(C)=O)[C@]6(CC)C=CCN7CC[C@]54[C@@H]76)C[C@@H](C3)C1O2 (stereo partly shown) [5'-nor-Na-desmethyl Na-formyl leurosine]
I50/I50 vinblastine (tubulin [1]): 2.77
S50/S50 vinblastine (tubulin [2]): 2.5

CCC1=C[C@@H]2CN(C1)Cc1c([nH]c3ccccc13)[C@@](C(=O)OC)(c1cc3c(cc1OC)N(C)[C@H]1[C@@](O)(C(=O)OC)[C@H](OC(C)=O)[C@]4(CC)C=CCN5CC[C@]31[C@@H]54)C2 [5'-noranhydrovinblastine]
activity in regard to the inhibition of polymerisation (tubulin [1]; in words, compared with vinblastine): activity similar to vinblastine
I50/I50 vinblastine (tubulin [1]): 0.7
"spiralising" activity (tubulin [2]; in words): does not have any "spiralising" activity
S50/S50 vinblastine (tubulin [2]): 0.8-1.0
I.L.S. (formula drawing 14) (P388 leukaemia; 5 mg/kg i.p.): 29.5
ratio of T and C (formula drawing 15) (P388 leukaemia; 5 mg/kg i.p.): 129.5
Mean survival period (P388 leukaemia; 5 mg/kg i.p.): 13.6 ± 0.8 days
I.L.S. (formula drawing 14) (P388 leukaemia; 10 mg/kg i.p.): 70.5
ratio of T and C (formula drawing 15) (P388 leukaemia; 10 mg/kg i.p.): 170.5
Mean survival period (P388 leukaemia; 10 mg/kg i.p.): 17.9 ± 0.9 days
I.L.S. (formula drawing 14) (P388 leukaemia; 25 mg/kg i.p.): ≥ 131.4
ratio of T and C (formula drawing 15) (P388 leukaemia; 25 mg/kg i.p.): ≥ 231.4
Mean survival period (P388 leukaemia; 25 mg/kg i.p.): ≥ 24.3 days
I.L.S. (formula drawing 16) (L1210 leukaemia; 5 mg/kg i.p.): 40
ratio (formula drawing 17) (L1210 leukaemia; 5 mg/kg i.p.): 140
Mean survival period (L1210 leukaemia; 5 mg/kg i.p., control 8.6 ± 0.4): 12.0 ± 0.9 days
I.L.S. (formula drawing 16) (L1210 leukaemia; 10 mg/kg i.p., first line): 57
Mean survival period (L1210 leukaemia; 10 mg/kg i.p., first line, control 8.6 ± 0.4): 13.5 ± 0.9 days
ratio (formula drawing 17) (L1210 leukaemia; 10 mg/kg i.p., first value): 157
I.L.S. (formula drawing 16) (L1210 leukaemia; 10 mg/kg i.p., second line): 50
Mean survival period (L1210 leukaemia; 10 mg/kg i.p., second line, control 8.6 ± 0.7): 12.9 ± 1.3 days
ratio (formula drawing 17) (L1210 leukaemia; 10 mg/kg i.p., second value): 150
I.L.S. (formula drawing 16) (L1210 leukaemia; 25 mg/kg i.p., first line): 65
Mean survival period (L1210 leukaemia; 25 mg/kg i.p., first line, control 8.6 ± 0.4): 14.2 days
ratio (formula drawing 17) (L1210 leukaemia; 25 mg/kg i.p., first value): 165
I.L.S. (formula drawing 16) (L1210 leukaemia; 25 mg/kg i.p., second line): 57
Mean survival period (L1210 leukaemia; 25 mg/kg i.p., second line, control 8.6 ± 0.7): 13.5 days
ratio (formula drawing 17) (L1210 leukaemia; 25 mg/kg i.p., second value): 157
Distribution of mortality, 1 ([3]; 50 mg/kg i.p.): 1
Distribution of mortality, 4 ([3]; 50 mg/kg i.p., column 4 (day)): 1
Distribution of mortality, 6 ([3]; 50 mg/kg i.p.): 1
Distribution of mortality, 9 ([3]; 50 mg/kg i.p., column 9 (day)): 1
Mortality over 35 days ([3]; 50 mg/kg single i.p. dose, tartrate, 5 mice): 4/5
Distribution of mortality, 1 ([3]; 75 mg/kg i.p.): 3
Distribution of mortality, 3 ([3]; 75 mg/kg i.p.): 1
Distribution of mortality, 6 ([3]; 75 mg/kg i.p.): 1
Distribution of mortality, 3 ([3]; 100 mg/kg i.p.): 3
Mortality over 35 days ([3]; 100 mg/kg single i.p. dose, tartrate, 3 mice): 3/3
toxicity compared with vincristine and vinblastine ([3]; in words): far less toxic
mortality at 840 h ([3]; mouse, in vivo, ip, 25 mg/kg single i.p. dose, tartrate, 5 mice): 0%
DL0 ([3]; single i.p. dose, tartrate, DBA/2 female mice, 35 days): 25 mg/kg
activity on the leukaemia studied (leukaemia studied): more active than vincristine and vinblastine

CCC1=C[C@@H]2CN(C1)Cc1c([nH]c3ccccc13)[C@@](C(=O)OC)(c1cc3c(cc1OC)N(C=O)[C@H]1[C@@](O)(C(=O)OC)[C@H](OC(C)=O)[C@]4(CC)C=CCN5CC[C@]31[C@@H]54)C2 [5'-noranhydrovincristine]
I50/I50 vinblastine (tubulin [1]): 0.8
S50/S50 vinblastine (tubulin [2]): 0.66

CCC12CN3Cc4c([nH]c5ccccc45)[C@@](C(=O)OC)(c4cc5c(cc4OC)N(C)[C@H]4[C@@](O)(C(=O)OC)[C@H](OC(C)=O)[C@]6(CC)C=CCN7CC[C@]54[C@@H]76)C[C@@H](C3)C1O2 (stereo partly shown) [5'-norleurosine]
I50/I50 vinblastine (tubulin [1]): 1.0
S50/S50 vinblastine (tubulin [2]): 3

CCC1=C[C@@H]2CN(C1)Cc1c([nH]c3ccccc13)[C@@](C(=O)OC)(c1cc3c(c(Cl)c1OC)N(C)[C@H]1[C@@](O)(C(=O)OC)[C@H](OC(C)=O)[C@]4(CC)C=CCN5CC[C@]31[C@@H]54)C2 [12-chloro-5'-noranhydrovinblastine]
I50/I50 vinblastine (tubulin [1]): 13

CCC1=C[C@@H]2CN(CCc3c([nH]c4ccccc34)[C@@](C(=O)OC)(c3cc4c(cc3OC)N(C=O)[C@H]3[C@@](O)(C(=O)OC)[C@H](OC(C)=O)[C@]5(CC)C=CCN6CC[C@]43[C@@H]65)C2)C1 [anhydrovincristine, reference compound]
I50/I50 vinblastine (tubulin [1]): 1.8
S50/S50 vinblastine (tubulin [2]): 1.5

CC[C@]1(O)C[C@@H]2CN(CCc3c([nH]c4ccccc34)[C@@](C(=O)OC)(c3cc4c(cc3OC)N(C)[C@H]3[C@@](O)(C(=O)OC)[C@H](OC(C)=O)[C@]5(CC)C=CCN6CC[C@]43[C@@H]65)C2)C1 [vinblastine, reference compound]
DL50 [4]: 17 mg/kg

CC[C@]1(O)C[C@H]2CN(CCc3c([nH]c4ccccc34)[C@@](C(=O)OC)(c3cc4c(cc3OC)N(C=O)[C@H]3[C@@](O)(C(=O)OC)[C@H](OC(C)=O)[C@]5(CC)C=CCN6CC[C@]43[C@@H]65)C2)C1 [vincristine]
DL10 ([4]; route not given): 3 mg/kg
DL50 [4]: 2 mg/kg
